Experimental findings from EP4663640A1 (Shanghai Institute of Materia Medica, Chinese Academy of …, priority 2023, dated 2024) are described below.

As a reminder, the EC50 is the midpoint of the concentration-response curve.

In series [1] the target is T1, hTRPC5 (Homo sapiens, UniProt Q9UL62).
T1 construct: expressed in transfected cells; host or cells: HEK-293
T1 sequence (Q9UL62 1-973): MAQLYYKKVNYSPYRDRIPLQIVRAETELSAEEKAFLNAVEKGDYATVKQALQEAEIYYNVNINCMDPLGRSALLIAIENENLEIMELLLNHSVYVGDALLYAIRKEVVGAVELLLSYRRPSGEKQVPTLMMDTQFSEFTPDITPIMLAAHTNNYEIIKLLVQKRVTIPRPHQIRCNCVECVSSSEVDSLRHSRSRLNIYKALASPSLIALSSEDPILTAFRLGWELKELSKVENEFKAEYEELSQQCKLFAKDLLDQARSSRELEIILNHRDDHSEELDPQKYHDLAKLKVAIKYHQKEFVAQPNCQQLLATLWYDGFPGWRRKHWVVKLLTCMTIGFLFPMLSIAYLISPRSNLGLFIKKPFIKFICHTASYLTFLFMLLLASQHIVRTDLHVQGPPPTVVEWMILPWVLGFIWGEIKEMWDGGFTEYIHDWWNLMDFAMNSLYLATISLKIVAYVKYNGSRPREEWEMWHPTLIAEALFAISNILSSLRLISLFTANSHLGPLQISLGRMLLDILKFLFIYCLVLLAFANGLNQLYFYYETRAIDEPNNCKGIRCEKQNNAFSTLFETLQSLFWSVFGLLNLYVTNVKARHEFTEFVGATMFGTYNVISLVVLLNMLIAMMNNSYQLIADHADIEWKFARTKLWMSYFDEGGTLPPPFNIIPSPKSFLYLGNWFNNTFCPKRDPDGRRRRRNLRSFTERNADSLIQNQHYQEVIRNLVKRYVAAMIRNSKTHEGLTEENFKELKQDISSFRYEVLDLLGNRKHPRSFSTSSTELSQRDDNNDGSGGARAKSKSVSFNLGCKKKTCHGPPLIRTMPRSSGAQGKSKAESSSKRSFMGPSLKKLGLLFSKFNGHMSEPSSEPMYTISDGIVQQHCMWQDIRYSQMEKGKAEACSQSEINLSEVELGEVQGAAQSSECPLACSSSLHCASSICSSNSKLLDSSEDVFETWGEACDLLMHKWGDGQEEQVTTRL
The series can be described thus: TRPC5 agonist activity assay (FLIPR calcium fluorescence). The settings on record: Table 2, agonist activity on TRPC5 channels. Format: cell-based. As to the method: HEK-293 cells expressing hTRPC5 were seeded into PDL-coated black-walled 96-well plates, with 2×10^4 cells per well. After 8 hours of culture, the original culture medium was discarded, and 60 µL of 4 µM Fluo-4/AM dye was added immediately. The cells were incubated at 37 °C for 60 minutes, and then rinsed with calcium flow detection buffer 5 times. The cell plates were placed in FLIPR®TETRA (Molecular Devices, Sunnyvale, CA, USA) preheated at 30 °C, excited at a wavelength of 488 nm, and the fluorescence signals were continuously recorded in the range of 515-535 nm with a sampling frequency of 1 s. After recording for 360 seconds, solvent control and test compounds were added, and the fluorescence signal was collected for another 600 seconds. The fluorescence signal of the trajectory diagram is represented by F/F0, wherein F is the fluorescence signal at different time points, and F0 is the basic fluorescence signal, that is, the average value of the fluorescence signal at the first 10 time points. The dose-effect diagram first took F/F0 =1 as the baseline. The area under the curve of the change in fluorescence intensity after adding test compound was calculated. IC50 value was calculated using log[agonist] vs. response - Variable slope, taking into account the area under the curve and the log value of the concentration of the compound.

Series [2] has as its system mice. The series can be described thus: Tail suspension test (antidepression). Type of series: in vivo. The settings on record: before versus after administration (Figure 4). As to the method: (§1) The drug to be tested was dissolved in DMSO: Tween 80: distilled water at a ratio of 2:2:96 (v/v/v), and then administered to mice by gavage at a volume of 10 mL/kg. […] The blank control group was only given 10 mL/kg of the above solvent.
The mouse tail suspension test (TST) is a widely used experimental method to evaluate the effectiveness of antidepressants and other psychotropic drugs. The principle of the test is to suspend a mouse by its tail and observe its behavior. The mouse will initially struggle to escape, but when it realizes that escape is impossible, it will eventually stop struggling and enter a state of immobility that indicates despair. This immobility behavior is used to measure depression-like states, and the severity of the condition is assessed by recording the duration of immobility.
The same mouse was subjected to the tail suspension test immediately after the marble burying test. A tail suspension test box was built using a black frosted acrylic board, 55 cm high, 15 cm long, and 11.5 cm wide. The three sides and top of the box were frosted blackboards, and one side was used for video recording. The mouse tail was wrapped with yellow tape 2 cm away from the tip of the tail, and the mouse was hung upside down in the middle of the top acrylic board. The tip of the mouse tail was about 3 cm away from the acrylic board, and the body was suspended and could not touch the surrounding board wall. The test time for each mouse lasted for 6 minutes, and the immobility time of the mouse during this time was counted. After the experiment, the mouse was returned to the cage, and the inside of the box and the table were wiped with alcohol to remove the smell of the previous mouse to prevent affecting the next mouse experiment. The criteria for immobility in the tail suspension test: stop struggling, no flexion or twisting of the body, no swinging of the hind limbs, and slight swinging of the forelimbs and head were also counted as immobility time.

Series [3] concerns mice. The series can be described thus: Marble burial test (antianxiety). Format: in vivo. The settings on record: before versus after administration (Figure 3). The procedure:
as §1
The mouse marble burial test is a behavioral assay used for the screening of antianxiety drugs. It exploits the natural digging behavior of mice in environments such as burrows or escape tunnels and is sensitive to small changes in behavior caused by genetic manipulation, disease, or drug treatment.
A 5cm thick sawdust litter was laid in a 33 cm×24 cm×28 cm carton, and 4×5 black marbles (4 cm apart) with a total of 20 black marbles of 14mm in diameter were neatly placed on the litter. The mouse was put into the carton facing the corner for 30 minutes. After 30 minutes, the mouse was carefully taken out and the number of marbles buried by the mouse was counted. If more than 2/3 of the marble was buried, it was considered a whole marble. First, a blank experiment was conducted. Before the experiment, the mouse was taken to the experimental environment to adapt. After 1 hour, the experiment began. After the experiment, the mouse was returned to the cage and the number of marbles buried by the mouse was counted. On the second day, the mouse was taken to the experimental environment to adapt for 1 hour before the drug was administered. After the drug administration, the marble burying experiment was conducted for […]. After the experiment, the mouse was carefully taken out and returned to the cage to prevent the mouse from escaping violently and affecting the experimental results. After counting, the black marbles were taken out and wiped with alcohol, and the litter was turned over again to remove the smell of the previous mouse to prevent it from affecting the experiment of the next mouse. The marbles were neatly placed for the experiment of the next mouse.

Series [4] can be described thus: Liver microsome stability test, mouse. Format: in vitro ADME. The settings on record: Mouse liver microsomes. The source says: Calculation of Intrinsic Clearance: Clint = (1000 × slope)/(P); [formula]
(In general: Liver microsomes are a subcellular fraction often used to study metabolism.)

The nature of series [5]: Preliminary pharmacokinetic evaluation, plasma drug concentration after oral administration to mice. Type of series: in vivo, ICR mice. The settings on record: oral 10 mg/kg, Mean ± SD, N = 3. The procedure: The test compound was prepared according to the following solvent: an aqueous solution of DMSO/Tween 80/0.5% (m/v) CMC-Na at a ratio of 2:2:96 (v/v/v), with a drug concentration of 1 mg/mL. Then, the test compound was gavaged to mice at a dosage of 10 mL/kg, with a dose of 10 mg/kg. Each compound was administered to 3 mice. At 1h and 4h after administration, about 50 µL of blood was collected from the orbital venous plexus of the mouse and placed in a centrifuge tube containing EDTA-K2 anticoagulant.

Consider `CC(C)OC1CCC(F)(c2nc3c(c(=O)n(CCCO)c(=O)n3C)n2Cc2ccc(Cl)cc2)CC1` (stereo not drawn) [Example E19, 7-(4-chlorobenzyl)-8-(1-fluoro-4-isopropoxycyclohexyl)-1-(3-hydroxypropyl)-3-methyl-3,7-dihydro-1H-purine-2,6-dione], for which, in series [1], the EC50 was 74.5 nM.
As to `COC1(c2nc3c(c(=O)n(CCCO)c(=O)n3C)n2Cc2ccc(Cl)cc2)CCC(C)(C)CC1` [Example E26, 7-(4-chlorobenzyl)-1-(3-hydroxypropyl)-8-(1-methoxy-4,4-dimethylcyclohexyl)-3-methyl-3,7-dihydro-1H-purine-2,6-dione], the half-maximal effective concentration (EC50) in series [1] lay in the range of 100 to 200 nM.
As for `CC(C)C1CCC(F)(c2nc3c(c(=O)n(CCCO)c(=O)n3C)n2Cc2ccc(Cl)cc2)CC1` (stereo not drawn) [Example E31, 7-(4-chlorobenzyl)-8-(1-fluoro-4-isopropylcyclohexyl)-1-(3-hydroxypropyl)-3-methyl-3,7-dihydro-1H-purine-2,6-dione], the EC50 in series [1] worked out at 102 nM.
For `Cn1c(=O)n(CCCO)c(=O)c2c1nc(C1=CCC(F)(F)CC1)n2Cc1ccc(Cl)cc1` [Example E37, 7-(4-chlorobenzyl)-8-(4,4-difluorocyclohex-1-en-1-yl)-1-(3-hydroxypropyl)-3-methyl-3,7-dihydro-1H-purine-2,6-dione], in series [1], the concentration for a half-maximal effect (EC50) lay in the range of 100 to 200 nM.
On to `Cn1c(=O)n(CCCO)c(=O)c2c1nc(C1(F)CCC(c3ccccc3)CC1)n2Cc1ccc(Cl)cc1` (stereo not drawn) [Example E54, 7-(4-chlorobenzyl)-8-(1-fluoro-4-phenylcyclohexyl)-1-(3-hydroxypropyl)-3-methyl-3,7-dihydro-1H-purine-2,6-dione], for which, in series [1], the concentration for a half-maximal effect (EC50) was determined as 170 nM.
For `Cn1c(=O)n(CCCO)c(=O)c2c1nc(C1(F)CCC(N3CCCC3)CC1)n2Cc1ccc(Cl)cc1` (stereo not drawn) [Example E55, 7-(4-chlorobenzyl)-8-(1-fluoro-4-(pyrrolidin-1-yl)cyclohexyl)-1-(3-hydroxypropyl)-3-methyl-3,7-dihydro-1H-purine-2,6-dione], the EC50 in series [1] was 700 nM.
Regarding `CNCCC(Oc1ccc(C(F)(F)F)cc1)c1ccccc1` (stereo not drawn) [Fluoxetine, reference compound], the “immobility time of mice” value in series [2] (oral 10 mg/kg) was “significantly reduced”. Besides, the “number of marbles buried by mice” value in series [3] (oral 10 mg/kg) is reported as “significantly reduced”.
As to `Cn1c(=O)n(CCCO)c(=O)c2c1nc(Oc1cccc(Cl)c1)n2Cc1ccc(Cl)cc1` [HC-070, reference compound], the “immobility time of mice” value in series [2] (oral 1 mg/kg) is “significantly reduced”. In addition, the “Stability Evaluation” value in series [4] is “Worse (MF%<30%, worse metabolic stability)”. This molecule also returned an MF % in series [4] (metabolic bioavailability) of 19.8%. For the same molecule, the half-life in series [4] (pH 7.4, 1µM compound, read-out: Half-life T1/2) worked out at 11.7 min. Also, in series [5] (1h), the “drug concentration 1h” value is listed as 802 ± 164 ng/mL. For the same molecule, in series [5] (4h), the “drug concentration 4h” value amounted to 398 ± 57 ng/mL. Also, in series [3] (oral 1 mg/kg), the “number of marbles buried by mice” value is on record as “significantly reduced”.
